According to US11905338B2, “Peptides for use as cell-penetrating peptides” (CENTRE NATIONAL DE LA RECHERCHE SCIENTIFIQUE, priority 2018, dated 2024):
Entries after “also recorded” stand apart in the source; their conditions may differ. Where no end group is shown, it is not given here.

What was measured:
[1] = system: firefly luciferase (FLuc) in U87 cells; experiment: Luciferase reporter gene silencing assay; assay type: cell-based, human
Method: Transfection experiments. For Luciferase assay, the different cells (5,000 cells per well) were seeded 24 h before experiment into 96-well plates using the corresponding medium as described above. […] In the meantime, the growth medium covering the cells was replaced by 70 μL of fresh pre-warmed serum-free DMEM. […] After the addition of DMEM supplemented with 20% FBS (final FBS concentration=10%), cells were further incubated for 36 h and finally lysed for the luciferase detection. For transfection in the presence of serum, cells were incubated with nanoparticles in DMEM+10% FBS for 1.5 h at 37° C., and then DMEM supplemented with 10% FBS were added to the cells which were further incubated for 36 h before the final cell lyses for the luciferase detection.
Luciferase reporter gene silencing assay. The evaluation of siRNA delivery using the different vectors was carried out by measuring the remaining luciferase firefly (FLuc) activity in cell lysates. Briefly, after 36 h, the medium covering the cells was carefully removed and replaced by 50 μL of 0.5× Passive Lysis Buffer (PLB; Promega). After 30 min of shaking at 4° C., plates containing the cells were centrifuged (10 min, 1,800 rpm, 4° C.) and 5 μL of each cell lysate supernatant were finally transferred into a white 96-well plate. For the U87-FLuc-NLuc cells, both luciferase activities were quantified using a plate-reading luminometer (POLARstar Omega, BMG Labtech) using half-diluted Dual Luciferase Assay Reagents (Promega) as reported elsewhere (G. Aldrian, et al., (2017) J. Control. Release Off. J. Control. Release Soc. 256, 79-91). The results were expressed as percentage of relative light units (RLU) for each luciferase normalized first to non-treated cells (% FLuc and % NLuc) and then normalized to the value of % NLuc to obtain the Relative Luc Activity (% FLuc/% NLuc).
Cellular activity of CPP-based nanoparticles was evaluated in a luciferase screening assay, as previously described (L. N. Patel, et al., (2007) Pharm. Res. 24, 1977-1992; A. Elmquist, et al., (2001) Exp. Cell Res. 269, 237-244)). The knock-down efficiency of the different CPP:siRNA nanoparticles was performed on U87 cell line stably transfected for constitutive expression of FLuc/NLuc reporter genes (U87-FRT-CMV/Fluc-CMV/iRFP-IRES-NLuc).

[2] = Dynamic light scattering and zeta potential of nanoparticles; assay type: physicochemical; conditions: CPP:siRNA R = 20, 5% glucose; for Mean size (nm) I (%): intensity; for Mean size (nm) Nb (%): number
Method: Dynamic light scattering (DLS) and Zeta potential (ZP). CPPs:siRNA nanoparticles were evaluated with a Zetasizer NanoZS (Malvern) in terms of mean size (Z-average) of the particle distribution and of homogeneity (PdI). Zeta potential was determined in 5% glucose+5 mM of NaCl. All results were obtained from three independent measurements (three runs for each measurement at 25° C.).

[3] = Circular dichroism conformational analysis; assay type: physicochemical
Method: Circular dichroism (CD) measurements. CD spectra were recorded on a Jasco 810 (Japan) dichrograph in quartz suprasil cells (Hellma) with an optical path of 1 mm for peptide in solution or in the presence of liposomes vesicles. The same concentrations of peptide (40 μM) was used for each condition. Spectra were obtained from 3 accumulations between 190 nm and 260 nm with a data pitch of 0.5 nm, a bandwidth of 1 nm and a standard sensitivity.
The predicted structures were then compared to experimental investigations. Circular dichroism spectra were recorded for the peptides free in solution, afterwards for the peptides in the presence of siRNA and then after the addition of liposomes.

[4] = R 20, CPP:lipid r 10, CPP 40 μM

Row | Substance | PdI [2] | Mean size (nm) I (%) [2] [nm] | Mean size (nm) Nb (%) [2] [nm] | further results
1 | LLRLRWWWRLRLL (CPP2-2) |  |  |  | Activity of nanoparticles in luciferase silencing ([1]; R=20, siFLuc, compared with parent CPP): total inactivity
2 | RLLRLLWWWLLRLLR-NH2 [CPP2-4R, RLLRLL-WWW-LLRLLR] |  |  |  | Cytotoxic effect inferred from variability of luciferase measurement ([1]; nanoparticle incubation): some cytotoxic effect
3 | RLLWRLW-----LWRLLR (RLLWRLWLWRLLR; CPP1-4R) | 0.50 ± 0.04 | 1012 ± 984 | 422 ± 498 | 
4 | LLRLLRWWWWRLLRLL [CPP4] |  | 122.0 ± 71.5 | 23.6 ± 7.9 | Luciferase knock-down at R=40 relative to R=20 ([1]; R=40, siFLuc 20 nM): slightly increased; Conformation by circular dichroism, PEPTIDE +siRNA ([3]; CPP:siRNA molar ratio R 20, CPP 40 μM): alpha helical structure; also recorded: helix; Conformation by circular dichroism, PEPTIDE +siRNA +charged LUVs [3, 4]: helix; Conformation by circular dichroism, PEPTIDE +siRNA +neutral LUVs [3, 4]: helix; Conformation by circular dichroism, PEPTIDE ([3]; peptide free in solution, CPP 40 μM, rc = random coiled): turn
5 | RLLWRLWRLLWRLWRLLR (CPP1-6R) | 0.42 ± 0.08 | 125.3 ± 65.1 | 23.3 ± 3.4 | 
6 | RLLRLLRWWWRLLRLLR (CPP2-6R) | 0.34 ± 0.03 | 59.8 ± 9.3 | 25.9 ± 3.9 | 
